Experimental data as given in BigSolDB 2.1.

N#Cc1cccc([N+](=O)[O-])c1
solubility (mole fraction)
Conditions	278.15 K	283.15 K	288.15 K	293.15 K	298.15 K	303.15 K	308.15 K	313.15 K	318.15 K
in acetic acid	–	–	–	0.0354	0.04	0.0459	0.0525	0.0608	0.0713
in acetone	0.0789	0.0905	0.106	0.123	0.142	0.164	0.187	0.213	0.242
in acetonitrile	0.0473	0.0565	0.0682	0.0814	0.0973	0.116	0.138	0.164	0.196
in cyclohexane	–	0.000365	0.000472	0.000599	0.000768	0.00097	0.00121	0.00153	0.00193
in ethanol	0.00312	0.0038	0.00473	0.00582	0.00715	0.00873	0.0106	0.013	0.0159
in ethyl acetate	0.0353	0.044	0.0565	0.0706	0.0876	0.109	0.135	0.166	0.203
in isobutanol	0.00162	0.00207	0.00265	0.0033	0.00409	0.00504	0.00624	0.00773	0.00959
in isopropanol	0.0017	0.00215	0.00274	0.0035	0.00446	0.00565	0.00711	0.00905	0.0114
in methanol	0.0041	0.00501	0.00622	0.0076	0.00926	0.0112	0.0134	0.0162	0.0195
in n-butanol	0.00233	0.00286	0.00349	0.00428	0.00538	0.00683	0.00848	0.0104	0.0129
in n-propanol	0.0025	0.00308	0.0038	0.00475	0.00592	0.0073	0.00897	0.0111	0.0135
in toluene	0.0259	0.0304	0.0374	0.0458	0.0557	0.067	0.0813	0.0982	0.119
